In patent US8741951B2, “Non-steroidal compounds for androgen receptor modulation” (CNR—Consiglio Nazionale delle Ricerche, priority 2009, dated 2014):

Tests used:
[1] = biological target: T1, human androgen receptor (hAR) (Homo sapiens, UniProt P10275); experiment: hAR transactivation assay (ARE-luc) in Cos-7 cells; format: cell-based
T1 construct: expressed in transfected cells; host or cells: Cos-7
T1 sequence (P10275 1-920): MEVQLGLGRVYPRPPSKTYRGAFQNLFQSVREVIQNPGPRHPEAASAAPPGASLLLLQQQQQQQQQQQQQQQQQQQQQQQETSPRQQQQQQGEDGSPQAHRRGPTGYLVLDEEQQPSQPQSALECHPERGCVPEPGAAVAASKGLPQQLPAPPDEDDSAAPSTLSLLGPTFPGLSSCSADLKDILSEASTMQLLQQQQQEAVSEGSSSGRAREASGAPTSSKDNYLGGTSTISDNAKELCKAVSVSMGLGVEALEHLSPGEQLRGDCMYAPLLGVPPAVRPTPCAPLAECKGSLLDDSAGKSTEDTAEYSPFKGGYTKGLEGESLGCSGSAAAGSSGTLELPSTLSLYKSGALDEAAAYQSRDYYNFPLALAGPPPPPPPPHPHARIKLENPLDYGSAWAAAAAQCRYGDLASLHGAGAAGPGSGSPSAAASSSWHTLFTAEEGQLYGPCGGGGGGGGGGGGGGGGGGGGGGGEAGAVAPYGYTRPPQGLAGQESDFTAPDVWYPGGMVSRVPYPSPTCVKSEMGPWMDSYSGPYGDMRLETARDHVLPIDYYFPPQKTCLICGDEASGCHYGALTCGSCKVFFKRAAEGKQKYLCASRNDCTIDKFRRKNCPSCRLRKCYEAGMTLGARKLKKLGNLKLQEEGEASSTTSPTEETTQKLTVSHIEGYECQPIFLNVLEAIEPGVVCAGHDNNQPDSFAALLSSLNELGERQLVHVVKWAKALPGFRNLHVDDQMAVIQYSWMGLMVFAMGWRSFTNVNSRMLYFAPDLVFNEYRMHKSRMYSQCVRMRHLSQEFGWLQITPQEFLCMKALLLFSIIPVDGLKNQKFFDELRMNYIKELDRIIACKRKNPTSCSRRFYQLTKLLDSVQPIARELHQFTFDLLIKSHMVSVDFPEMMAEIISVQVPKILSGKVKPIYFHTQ
Text: The cDNA coding hAR was cloned into the pSG5 expression vector as reported previously [Chang, C. S., J. Kokontis, and S. T. Liao 1988 Molecular cloning of human and rat complementary DNA encoding androgen receptors Science 240:324-326].
The 3416 construct (ARE-Luc), containing four copies of the wild-type slp-HRE2 (5′-TGGTCAgccAGTTCT-3′) was cloned in the NheI site in pTK-TATA-Luc [Verrijdt, G., E. Schoenmakers, A. Haelens, B. Peeters, G. Verhoeven, W. Rombauts, and F. Claessens 2000 Change of specificity mutations in androgen selective enhancers J. Biol. Chem. 275:12298-12305].
For androgen-stimulated transcriptional analysis, 32×10^4 Cos-7 cells were plated in phenol red-free DMEM containing 5% charcoal-stripped serum. After 48 h, the cells were transfected by Superfect (Qiagen) with 0.3 μg of 3416-pTK-TATA-Luc construct, together with 1.5 μg of either pSG5-empty plasmid or pSG5-hAR expressing plasmid. […] When indicated, the synthetic compounds were added alone to the cell medium. […] It was dissolved in 0.001% (final concentration) ethanol. Control cells were treated with the vehicle alone. Lysates were prepared and the luciferase activity was measured using a luciferase assay system (Promega). The results were corrected using CH110-expressed beta-galactosidase activity (Amersham Biosciences) and luciferase activity was expressed as fold induction. Results were obtained from two or three different experiments, each performed in duplicate. Mean and SEM are shown.

[2] = tested on: LNCaP-AR cells; experiment: SRB in vitro chemosensitivity assay, LNCaP-AR; format: cell-based
Method: The cell lines were maintained as a monolayer at 37° C. and subcultured weekly. Culture medium was composed of RPMI 1640 supplemented with 10% fetal calf serum and 1% glutamine (Mascia Brunelli s.p.a., Milan, Italy). Cells were used in the exponential growth phase in all the experiments.
Compounds were dissolved in acetone or DMSO (AITES) ([…]) and stored at −20° C. The cell culture containing acetone at the highest concentration was used as the control.
Sulforhodamine B (SRB) assay was used according to the method by Skehan et al. (JNCI, 1990). Briefly, cells were collected by trypsinization, counted and plated at a density of 5,000 cells/well in 96-well flat-bottomed microtiter plates (100 μl of cell suspension/well). In the chemosensitivity assay, experiments were run in octuplicate, and each experiment was repeated three times. The optical density (OD) of cells was determined at a wavelength of 490 nm by a colorimetric plate reader.
If ODtreated is above ODzero, treatment has induced a cytostatic effect, whereas if ODtreated is below ODzero, cell killing has occurred. The ODzero depicts the cell number at the moment of drug addition, the ODcontrol reflects the cell number in untreated wells and the ODtreated reflects the cell number in treated wells on the day of the assay.
FIGS. 2-11 show the cytotoxic activity of the derivative compounds of the invention on the LNCaP and LNCaP-AR cell lines. The authors examined the antitumour activity of the compounds for which the synthesis is described above, in the hormone-sensitive prostate cancer cell line LNCaP and in its derivative cell line LNCaP-AR, expressing high level of AR and with hormone refractory prostate cancer (HRPC) features. The novel compounds were tested at the increasing concentrations of […], 0.2, 2.0, and 20.0 μM. The highest dose used was chosen on the basis of the clinically achievable peak plasma concentration reported in the literature for bicalutamide (Cockshott I D. Clin Pharmacokinet. 2004; 43(13): 855-78). After 144-hr exposure time the cytotoxic effect of the molecules was calculated according to the method of Monks et al. (Monks A, Scudiero D, Skehan P, et al. Feasibility of a high-flux anticancer drug screen using a diverse panel of cultured human tumor cell lines. J Natl Cancer Inst. 1991; 83: 757-66.)

N#Cc1ccc(NC(=O)[C@](O)(Cc2cccs2)CS(=O)(=O)c2ccc(F)cc2)cc1C(F)(F)F [(R)-XXIII-6]
inhibition of R1881-induced AR transcriptional activation (antagonistic activity), in words ([1]; compound 10 μM with 10 nM R1881): antagonistic activity | agonistic activity on AR transcription, in words ([1]; compound alone, 10 nM to 1 μM or 10 μM): does not seem to display agonistic activity | GI50 ([2]; Homo sapiens, LNCaP/AR, 144 h): 9.8 µM | LC50 ([2]; LNCaP-AR cells, 144 h exposure, up to 20 μM): n.r. | cytotoxic effect (cytostatic / cytocidal), in words ([2]; LNCaP-AR, 144 h, up to 20 μM): suppress completely the cell growth
